# Results from patent US7410972B2, “Compounds” (AstraZeneca AB, priority 2001, dated 2008).
# Test system: not given
# Experiment: not given
# Details: not given
row,melting point [°C],Structure (SMILES)
1,95 to 96,"COc1nc(C)c(C)nc1NS(=O)(=O)c1ccc(Cl)s1 [Example 27, 5-Chloro-N-(5,6-dimethyl-3-methoxy-2-pyrazinyl)-2-thiophenesulphonamide]"
2,130 to 133,"O=S(=O)(Nc1nc(Cl)cnc1OCc1ccco1)c1ccc(Cl)s1 [Example 20, 5-Chloro-N-[6 chloro-3-(2-furanylmethoxy)-2-pyrazinyl]-2-thiophenesulphonamide]"
3,141 to 142,"Cc1cc(COc2ncc(Cl)nc2NS(=O)(=O)c2ccc(Cl)s2)no1 [Example 21, 5-Chloro-N-[6-chloro-3-(5-methyl-3-isoxazolylmethoxy)2-pyrazinyl]-2-thiophenesulphonamide]"
4,204 to 205,"Cc1cnc(NS(=O)(=O)c2ccc(Cl)s2)c(OCc2cccnc2)n1 [Example 23, 5-Chloro-N-[5-methyl-3-(3-pyridinylmethoxy)-2-pyrazinyl]-2-thiophenesulphonamide]"
5,218 to 219,"COc1nc(C#N)cnc1NS(=O)(=O)c1ccc(Cl)s1 [Example 31, 5-Chloro-N-[5-cyano-3-methoxy-2-pyrazinyl]-2-thiophenesulphonamide]"
6,192 to 194,"COc1nc(SCCN)cnc1NS(=O)(=O)c1ccc(Cl)s1 [Example 30, N-[5-{(2-Aminoethyl)sulpanyl}-3-methoxy-2-pyrazinyl]-5-chloro-2-thiophenesulphonamide]"
7,119 to 120,"COc1nccnc1NS(=O)(=O)c1ccc(Cl)s1 [Example 26, 5-Chloro-N-(3-methoxy-2-pyrazinyl)-2-thiophenesulphonamide]"
8,109 to 110,"O=S(=O)(Nc1nccnc1OCc1ccccn1)c1ccc(Cl)s1 [Example 25, 5-Chloro-N-[3-(2-pyridinylmethoxy)-2-pyrazinyl]-2-thiophenesulphonamide]"
9,171 to 172,O=S(=O)(Nc1nc(Cl)cnc1OCc1ccccn1)c1ccc(Cl)s1 [Example 22]
10,179 to 181,"Cc1cnc(NS(=O)(=O)c2ccc(Cl)s2)c(OCc2cccnn2)n1 [Example 24, 5-Chloro-N-[5-methyl-3-(3-pyridazinylmethoxy)-2-pyrazinyl]-2-thiophenesulphonamide]"

# Molecular target: T1, human recombinant CCR4 receptor (Homo sapiens, UniProt P51679)
# T1 construct: Brussels, Belgium; host or cells: CHO-K1
# T1 sequence (P51679 1-360): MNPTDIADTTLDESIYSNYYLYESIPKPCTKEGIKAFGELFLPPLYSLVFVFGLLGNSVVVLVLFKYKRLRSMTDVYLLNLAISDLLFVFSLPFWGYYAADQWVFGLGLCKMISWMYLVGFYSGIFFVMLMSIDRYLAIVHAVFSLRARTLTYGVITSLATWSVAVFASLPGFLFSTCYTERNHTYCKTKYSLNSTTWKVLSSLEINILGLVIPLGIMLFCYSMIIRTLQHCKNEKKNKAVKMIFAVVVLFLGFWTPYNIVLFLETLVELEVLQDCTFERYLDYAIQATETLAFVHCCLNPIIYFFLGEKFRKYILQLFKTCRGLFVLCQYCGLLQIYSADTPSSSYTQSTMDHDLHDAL
# Experiment: FMAT Whole Cell Binding Assay (FB-MDC binding to CHO-K1 cells expressing CCR4)
# Details: CHO-K1 cells stably expressing human recombinant CCR4; inhibition of FB-MDC fluorescent probe binding, two hours incubation at room temperature
# Procedure: FMAT Whole Cell Binding Assay
# CHO-K1 cells stably expressing the human recombinant CCR4 receptor (Euroscreen; Brussels, Belgium) were cultured in NUT.MIX.F—12(HAM) medium with glutamax-1, containing 10% (v/v) foetal bovine serum and 400 μg ml^−1 geneticin.
# Cells were harvested at approximately 70% confluence by treatment with a cell dissociation buffer, and seeded at 5×10^3 cells/100 μl culture medium into wells of a black Costar clear-bottomed 96-well microtitre plates. Plates were incubated overnight at 37° C. in 5% CO2 and used the following day.
# Before use, the cell plates were washed twice with 100 μl Hanks balanced salt solution (HBSS). To each well was then added 65 μl of HBSS, 10 μL of 10% DMSO in HBSS±test compound and then 25 μL of 2.8 nM FB-MDC (Applied Biosystems). This fluorescent probe was prepared from a 10 μM stock in 0.08% (v/v) TFA/16% (v/v) acetonitrile, diluted into HBSS.
# After two hours incubation in the dark at room temperature, the plates were analysed in an FMAT8100 reader (Applied Biosystems) to measure fluorescence that was associated with binding of FB-MDC to the cells. Compound activity was determined as an pIC50 [log(concentration of compound that results in 50% inhibition)], comparing fluorescence in control and background wells.
# • Fluorescence (ctrl)=1200 • Fluorescence (bkg)=0
row,IC50 [nM],Structure (SMILES)
1,10,"Cc1cnc(NS(=O)(=O)c2ccc(Cl)s2)c(OCc2cccnc2)n1 [Example 23, 5-Chloro-N-[5-methyl-3-(3-pyridinylmethoxy)-2-pyrazinyl]-2-thiophenesulphonamide]"
2,39.8,"COc1nc(Br)cnc1NS(=O)(=O)c1ccc(Cl)s1 [Example 1, N-(5-Bromo-3-methoxy-2-pyrazinyl)-5-chloro-2-thiophenesulphonamide]"
3,631,"COCCOc1nc(Br)cnc1NS(=O)(=O)c1ccc(Cl)s1 [Example 16, 5-Chloro-N-[5-bromo-3-(2-methoxyethoxy)-2-pyrazinyl]-2-thiophenesulphonamide]"
